Assay results published in patent US4080471A, “Use of substituted isopropylaminopropanols for inducing inotropic effects of the human heart” (priority 1976, dated 1978).

Legend:
[1] = target: T1, beta-receptors of the blood vessels (Felis catus, UniProt Q9TST5); assay: Vasodilatating effect (hind limb perfusion pressure) on anesthetized cat pretreated with reserpine; assay type: in vivo; conditions: iv; reserpinized anesthetized cat, i.v.; estimated dose giving 50% of maximal effect; read-out: ED50 Vasodilation
T1 construct: from tissue; host or cells: hind-limb vascular bed of the anaesthetized cat in vivo (constant-flow perfusion, reserpine-pretreated)
T1 sequence (Q9TST5 whole entry, the tested form may be a part): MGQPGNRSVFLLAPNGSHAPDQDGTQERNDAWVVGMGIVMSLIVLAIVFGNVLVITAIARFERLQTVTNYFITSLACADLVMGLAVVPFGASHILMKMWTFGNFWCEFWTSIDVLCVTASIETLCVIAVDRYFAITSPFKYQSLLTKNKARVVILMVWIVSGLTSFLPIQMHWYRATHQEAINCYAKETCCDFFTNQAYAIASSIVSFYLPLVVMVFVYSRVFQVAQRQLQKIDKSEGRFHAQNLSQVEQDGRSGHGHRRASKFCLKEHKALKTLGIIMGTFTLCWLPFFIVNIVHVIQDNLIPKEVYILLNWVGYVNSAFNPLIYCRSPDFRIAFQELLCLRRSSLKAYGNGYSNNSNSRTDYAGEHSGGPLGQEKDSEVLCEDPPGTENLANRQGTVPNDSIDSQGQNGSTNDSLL
Description: (§1) Chronotropic (heart frequency) and vasodilatating effects:
(§2) When the cats had been anaesthetized with Mebumal® 30 mg/kg bodyweight i.p., an artificial air respiration was started. The two vagus nerves were cut and the blood passing through a femoral artery was fed via a catheter and a pump back to the distal part of the vessel. Parallelly, a pressure transducer was connected by which the perfusion pressure was registered. At a perfusion with a constant flow, the perfusion pressure is directly proportional to the peripheral resistance of the vascular bed of the hind limb. Blood circulation in the foot was interrupted with a ligature. Heart frequency was registered with a cardiotachometer triggered by the ECG. The substances were administered intravenously in increasing doses and the dose-response curves of the heart frequency and the vasodilatation were constructed.
(§3) Further, the dose ratios (ED50 for vasodilatation/ED50 for heart frequency) are calculated. A dose ratio >1 indicates a heart selective effect.

heart [2] = assay: Effect on heart chronotropy and inotropy of a conscious dog; conditions: for Enddiastolic volume / Stroke volume / Mean arterial blood pressure / Peak aortic flow / Mean ejection rate / Max. dF/dt: change i.v. at heart frequency +10 beats/min, interpolated, paced; for Enddiastolic volume: calculated from left ventricle diameter; for Stroke volume: methyl scopolamine pretreated; for Mean ejection rate: stroke volume / ejection time; for side effects: I and II 10 and 20 μg/kg; for Max. dF/dt: maximum flow acceleration in aorta
From the text: During anesthesia a catheter was introduced in the aorta, an electromagnetic flow probe was placed around the ascending aorta, and induction coils were placed diametrically on the inside of the left ventricle. The experiments were started about 2 weeks after the incision, when the dog had recovered completely.
When the dog was resting, the arterial blood pressure, the flow in the aorta, the maximum flow acceleration in the aorta (maximum dF/dt), heart frequency, the diameter of the left ventricle, and ECG were registered. The effects of compounds I and II were registered at 10, 20, and 30 minutes after administration. […] The compounds were given intravenously in the following doses. […] In order to eliminate vagal influence on the heart the dog was pretreated with methyl scopolamine 0.012 mg/kg bodyweight intramuscularily 20 minutes before the administration of the compounds. From the data giving the diameter of the left ventricle, the end diastolic volume was calculated according to E. W. Hawthorne. Mean ejection rate (ml/sec.) was calculated by dividing the stroke volume with the ejection time. […] The values given are the percentage changes after administration when the heart frequency has increased 10 beats per minute, values interpolated. […] In order to compare the inotropic effects of ouabain with those of the other compounds, the heart was stimulated in these experiments by electric pacing to a frequency which was 10 beats/minute above that registered before administration.
In order to investigate the absorption and duration of the effect, compounds I and II were given orally in an amount of 100 μg/kg bodyweight.

[3] = test system: beta-receptors of the heart; assay: Beta-adrenergic (chronotropic, heart frequency) effects on anesthetized cat pretreated with reserpine; assay type: in vivo
Description: as §1, §2, §3

[4] = target: T2, beta-receptors of the heart (Felis catus, UniProt Q9TST6); assay: as above; assay type: in vivo; conditions: for potency relative to isoprenaline, chronotropic effect: isoprenaline = 1, cat i.v.; for ED50: iv, reserpinized anesthetized cat, i.v., estimated dose giving 50% of maximal effect, read-out: ED50 Heart Frequency
T2 construct: Heart frequency was registered with a cardiotachometer triggered by the ECG; from tissue; host or cells: heart of the anaesthetized cat in vivo (reserpine-pretreated, vagotomized)
T2 sequence (Q9TST6 whole entry): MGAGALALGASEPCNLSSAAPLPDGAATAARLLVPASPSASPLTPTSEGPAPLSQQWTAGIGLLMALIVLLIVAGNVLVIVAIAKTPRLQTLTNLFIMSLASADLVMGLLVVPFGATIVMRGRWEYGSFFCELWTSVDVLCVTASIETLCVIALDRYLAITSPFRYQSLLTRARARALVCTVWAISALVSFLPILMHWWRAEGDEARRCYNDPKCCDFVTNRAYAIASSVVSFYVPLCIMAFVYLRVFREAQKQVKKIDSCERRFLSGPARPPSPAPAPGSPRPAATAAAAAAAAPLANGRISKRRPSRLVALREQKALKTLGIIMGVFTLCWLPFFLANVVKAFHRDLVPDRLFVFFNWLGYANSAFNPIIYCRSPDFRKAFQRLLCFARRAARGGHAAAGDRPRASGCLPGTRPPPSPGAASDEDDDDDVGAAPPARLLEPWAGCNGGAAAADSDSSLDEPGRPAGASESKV
Description: as §1, §2, §3

heart [5] = assay: Repetitive ventricular response (RVR) / spontaneous arrhythmia in the anesthetized dog; assay type: in vivo; conditions: 40 μg/kg bodyweight
From the text: (§4) Effects of Compound I and Ouabain On the Heart Contractility and Rhythmicity of the Anesthetized Dog
(§5) The object of the test was to compare compound I and oubain administered alone and in combination with each other to study the inotropic effect (maximum dP/dt in the left ventricle) and a possibly arrhythmic effect. The latter included an investigation of the ability of the compounds to cause repetitive ventricular response (RVR) when the heart was electrically stimulated via an electrode on the ventricle at the electrically vulnerable phase at the end of the T-wave. Klein et al. (M. Klein, N. S. Nejad, B. Lown, F. Hagemeijer and I. Blair, Circulation Research, 29, 635 (1971)) have shown that digitalis caused RVR at a dose which was about 70% of the dose giving spontaneous ventricular arrhythmias.
(§6) The dog was anesthetized with Mebumal® 30 mg/kg bodyweight i.v. Artificial respiration was applied. The sinus-node was electrocoagulated and the heart frequency was kept constant at 180 beats/minute in each test by electrical pacing of the auricle. Mean arterial blood pressure was registered from the carotis artery. ECG was registered during the test. Further, the pressure in the left ventricle was registered via a catheter inserted through the apex and connected to a pressure transducer. The intraventricular pressure curve was derivated to obtain maximum dP/dt which is a measure of the contractile force of the heart.
(§7) The test was started with a series of control registrations, whereupon the compounds were administered 3 times by infusion during five minutes and with an interval of 50 minutes between each infusion.
(§8) In the experiment with compound I only, the compound was administered in two doses of 10 μg/kg bodyweight and then one dose of 20 μg/kg bodyweight. Ouabain was given in 3 consecutive doses of 20 μg/kg bodyweight. In the combination test ouabain was first given in a dose of 20 μg/kg bodyweight followed by two doses of compound I of 10 and 20 μg/kg bodyweight, respectively.

heart [6] = assay: Effect on heart contractility (maximum dP/dt) of the anesthetized dog; assay type: in vivo
From the text: as §4, §5, §6, §7, §8

heart [7] = assay: Ventricular arrhythmia in dogs after two-stage ligation of the left anterior coronary artery (third day post infarction); assay type: in vivo, dog; conditions: 1-norepinephrine 20 μg/kg/min infusion, 120 minutes
Description: Harris, A. S. Delayed Development of Ventricular Ectopic Rhythms following Coronary Occlusion, Cir. l, p 1318, (1950) described a method of two-stage ligation of the left anterior coronary artery in the dog. This method produces a multifocal ventricular arrhythmia that generally remains persistent on the first post ligation day (day 1-24 hours post infarct). The arrhythmia slowly disappears, and by the third post-ligation day the animal has essentially a normal sinus rhythm.
Maling, H. M. and Moran, N. C., Ventricular Arrhythmias Induced by Sympathominetic Amines in Unanesthetized Dogs Following Coronary Artery Occlussion, Cir.
METHODS, MATERIALS AND EXPERIMENTAL DESIGN
Seventeen adult female beagle dogs were used. Their ages ranged from one to three years. These animals were divided into two groups.
The first group consisted of 12 dogs and served as a control group. All animals were subjected to a two-stage ligation of the left anterior coronary artery. On the first post operative day these twelve animals were given various experimental antiarrhythmic agents as part of a routine testing procedure. It should be noted that, due to the nature of these agents, there would be no test drug or only trace amounts of test drug in the blood on day 3, and these amounts would cause little or no change on the outcome of a third day test. It should also be noted that all twelve of these animals has at least 85% ventricular ectopic beats on the morning after surgery in order to be accepted for testing.
On the third day post infarction the dogs were suspended in a standing position in a canvas sling. No anesthesia or sedation was used. ECGs were recorded as well as blood pressure. After a control period, an infusion of 20 μg/kg min. of 1-norepinephrine was begun using a Harvard infusion/withdrawal pump. This infusion lasted 120 minutes.
These five animals were all subjected to a two stage ligation of the anterior descending coronary artery. On day 1 and day 2 each dog was suspended in a canvas sling in the standing position and ECG, blood pressure, and other physiologic measurements were taken. […]

[8] = conscious dog, ouabain 30 μg/kg i.v.
[9] = dose ratio >1 indicates a heart selective effect
[10] = 20 minutes after administration, ouabain versus compound I
[11] = anesthetized dog, i.v. infusion

CC(C)NCC(O)COc1ccc(OC(=O)C(C)C)cc1 (centres unmarked) [II, 1-isopropylamino-3-(p-isobutyryloxyphenoxy)-propanol-2]
ED50 [1]: > 1 mg/kg
time of maximum effect, oral (heart [2]; 100 μg/kg bodyweight orally): 30 min
Enddiastolic volume (heart [2]; ouabain 30 μg/kg i.v.): -8%
Stroke volume (heart [2]; ouabain 30 μg/kg i.v.): 5%
Mean arterial blood pressure (heart [2]; ouabain 30 μg/kg i.v.): 0 mm Hg
Peak aortic flow (heart [2]; ouabain 30 μg/kg i.v.): 19%
Mean ejection rate (heart [2]; ouabain 30 μg/kg i.v.): 11%
side effects (heart [2]; [8]): No side effect was observed
Max. dF/dt (heart [2]; ouabain 30 μg/kg i.v.): 34%
oral effect (in words) (heart [2]; oral, 100 μg/kg bodyweight): comparable with those obtained after intravenous administration of 20 μg/kg bodyweight
positive inotropic effect compared with ouabain (in words) (heart [2]; versus relatively high dose of ouabain): comparable to the effect of the relatively high dose of ouabain
Selectivity: ED50 Vasodilatation / ED50 Heart Frequency [3, 9]: > 100
potency relative to isoprenaline, chronotropic effect [4]: about 1/100
ED50 [4]: 0.006 mg/kg

CC(C)NCC(O)COc1ccc(OC(=O)c2ccccc2)cc1 (centres unmarked) [III, 1-isopropylamino-3-(p-benzoyloxyphenoxy)-propanol-2]
ED50 [1]: > 1 mg/kg
Selectivity: ED50 Vasodilatation / ED50 Heart Frequency [3, 9]: > 100
potency relative to isoprenaline, chronotropic effect [4]: about 1/100
ED50 [4]: 0.01 mg/kg

CC(C)NCC(O)COc1ccc(OC(=O)C(C)(C)C)cc1 (centres unmarked) [IV, 1-isopropylamino-3-(p-pivaloyloxyphenoxy)-propanol-2]
ED50 [1]: > 1 mg/kg
Selectivity: ED50 Vasodilatation / ED50 Heart Frequency ([3]; in vivo): > 15
ED50 [4]: 0.06 mg/kg

CC(C)NCC(O)c1ccc(O)c(O)c1 (centres unmarked) [Isoprenaline, reference compound]
Enddiastolic volume (heart [2]; ouabain 30 μg/kg i.v.): -2%
Mean arterial blood pressure (heart [2]; ouabain 30 μg/kg i.v.): -10 mm Hg
Peak aortic flow (heart [2]; ouabain 30 μg/kg i.v.): 19%
mean blood pressure (in words) (heart [2]; conscious dog, infusion): decreased the mean blood pressure
contractility / inotropic effect in conscious dog (in words) (heart [2]; i.v.): increased the contractility less than compounds I and II

C[C@@H]1O[C@@H](O[C@H]2C[C@@H](O)[C@]3(CO)[C@H]4[C@H](O)C[C@]5(C)[C@@H](C6=CC(=O)OC6)CC[C@]5(O)[C@@H]4CC[C@]3(O)C2)[C@H](O)[C@H](O)[C@H]1O [Ouabain, reference compound]
experiments with RVR (heart [5]): more than 50%
Enddiastolic volume (heart [2]; ouabain 30 μg/kg i.v.): -2%
Stroke volume (heart [2]; ouabain 30 μg/kg i.v.): 5%
Mean arterial blood pressure (heart [2]; ouabain 30 μg/kg i.v.): 10 mm Hg
Peak aortic flow (heart [2]; ouabain 30 μg/kg i.v.): 12%
Mean ejection rate (heart [2]; ouabain 30 μg/kg i.v.): 10%
heart frequency (in words) (heart [2]; [8]): expected decrease of the heart frequency
side effects (heart [2]; [8]): vomiting
Max. dF/dt (heart [2]; ouabain 30 μg/kg i.v.): 30%
time of maximum response after i.v. administration (heart [2]; ouabain 30 μg/kg i.v.): about 50 minutes
increase of aortic blood pressure (heart [6]; 20 minutes after administration): about 10 mm Hg
doses giving approximately the same level of maximum dP/dt (lower pair) (heart [6]; [10]): ~20 μg/kg bodyweight
doses giving corresponding effect on maximum dP/dt (higher pair) (heart [6]; [10]): 40 μg/kg bodyweight
effect on maximum dP/dt (in words) (heart [6]; [11]): increased maximum dP/dt
onset of effect on maximum dP/dt (heart [6]; [11]): within a minute
reduction of effect on maximum dP/dt after 50 minutes (heart [6]; [11]): only partly reduced after 50 minutes
time to maximal effect on maximum dP/dt (heart [6]; [11]): about 20 minutes

NC[C@H](O)c1ccc(O)c(O)c1 [norepinephrine, reference compound]
duration of substantially high incidence of ectopic activity (heart [7]): at least 90 minutes
